Measured values taken from patent US11753445B2, “Therapeutic peptides” (COHBAR, INC., priority 2016, dated 2023).
Peptide text beside a SMILES is read from it.

Tested on: 3T3-L1 Adipocytes
Assay: Free fatty acid levels in cultured mouse 3T3-L1 adipocytes, isoproterenol stimulated (Example 2)
Type: cell-based
Conditions: test peptides 25 μM; isoproterenol 1 nM
Experimental: Mouse 3T3-L1 cells were seeded at a density between 1,000-20,000 cells per well on 96-well, 48-well, or 24-well plates in Pre-adipocyte Medium (Zen-Bio, Durham, N.C.) and grown to confluence at 37° C. in a humidified atmosphere of 5% CO2/95% air. Two days after confluence, cells were placed in Adipocyte Differentiation Medium (Zen-Bio, Durham, N.C.) and cultured for three additional days at 37° C. in a humidified atmosphere of 5% CO2/95% air. The culture media was then replaced with Adipocyte Maintenance Medium (Zen-Bio) and the cells were maintained for an additional 9-14 days at 37° C. in a humidified atmosphere of 5% CO2/95% air with partial medium replacement every other day. Following 12-17 days of differentiation, test peptides were added at a final concentration of 25 μM and incubated for 18-20 hours in Adipocyte Maintenance Medium at 37° C. in a humidified atmosphere of 5% CO2/95%. After 18-20 hours, the media was exchanged with fresh Adipocyte Maintenance Medium containing test peptides and incubated for 1 h at 37° C. in a humidified atmosphere of 5% CO2/95%. After 1 h media was exchanged with Assay Buffer (Zen-Bio) containing isoproterenol (1 nM) (added to all samples except untreated controls) and the test peptides. Cells were incubated for a further 3 hours at 37° C. in a humidified atmosphere of 5% CO2/95%. Free fatty acid concentrations in the media were determined using a Free Fatty Acid Assay Kit (Zen-Bio) according to the manufacturer's instructions using a plate reader (540 nm).
Absorbance values were corrected for untreated background and expressed relative to isoproterenol treated cells. Treatment with isoproterenol (1 nM) alone was used as the free fatty acid level stimulatory control. The relative standard deviation of the isoproterenol control was <10%. […] Free fatty acid levels for insulin (100 nM) treatment were <5% of the isoproterenol control value.

## CC[C@H](C)[C@H](NC(=O)[C@H](Cc1ccc(O)cc1)NC(=O)CNC(=O)[C@H](CCSC)NC(=O)[C@H](CCC(=O)O)NC(=O)[C@H](CCC(N)=O)NC(=O)[C@H](Cc1c[nH]c2ccccc12)NC(=O)[C@@H](C)NC(=O)[C@H](CCSC)NC(C)=O)C(=O)N[C@@H](Cc1ccccc1)C(=O)N[C@@H](Cc1ccc(O)cc1)C(=O)N1CCC[C@H]1C(=O)N[C@@H](CCCNC(=N)N)C(=O)N[C@@H](CCCCN)C(=O)N[C@@H](CC(C)C)C(=O)N[C@@H](CCCNC(=N)N)C(N)=O [compound 153] (HELM PEPTIDE1{[ac].M.[dA].W.Q.E.M.G.Y.I.F.Y.P.R.K.L.R.[am]}$$$$V2.0)
  Free Fatty Acid Levels in 3T3-L1 Adipocytes Expressed as a Percent of Isoproterenol Control: Percent of Control Value: 93.1%

## Ac-MRWQEMGYIF-NH2 [compound 64]
  Free Fatty Acid Levels in 3T3-L1 Adipocytes Expressed as a Percent of Isoproterenol Control: Percent of Control Value: 90.6%

## Ac-LKWQEMGYIFYPRKR-NH2 [compound 117]
  Free Fatty Acid Levels in 3T3-L1 Adipocytes Expressed as a Percent of Isoproterenol Control: Percent of Control Value: 97.7%

## Ac-MRWQEMGYIFYPRK-NH2 [compound 60]
  Free Fatty Acid Levels in 3T3-L1 Adipocytes Expressed as a Percent of Isoproterenol Control: Percent of Control Value: 89.3%

## CC[C@H](C)[C@H](NC(=O)[C@@H](C)NC(=O)CNC(=O)[C@H](CCSC)NC(=O)[C@H](CCC(=O)O)NC(=O)[C@H](CCC(N)=O)NC(=O)[C@H](Cc1c[nH]c2ccccc12)NC(=O)[C@H](CCCNC(=N)N)NC(=O)[C@H](CCSC)NC(C)=O)C(=O)N[C@@H](Cc1ccccc1)C(=O)N[C@@H](Cc1ccc(O)cc1)C(=O)N1CCC[C@H]1C(=O)N[C@@H](CCCNC(=N)N)C(=O)N[C@@H](CCCCN)C(=O)N[C@@H](CC(C)C)C(=O)N[C@@H](CCCNC(=N)N)C(N)=O [compound 159] (HELM PEPTIDE1{[ac].M.R.W.Q.E.M.G.[dA].I.F.Y.P.R.K.L.R.[am]}$$$$V2.0)
  Free Fatty Acid Levels in 3T3-L1 Adipocytes Expressed as a Percent of Isoproterenol Control: Percent of Control Value: 87.4%

## Ac-LKWQEMGYIFYPRKRL-NH2 [compound 115]
  Free Fatty Acid Levels in 3T3-L1 Adipocytes Expressed as a Percent of Isoproterenol Control: Percent of Control Value: 83.4%

## CC[C@H](C)[C@H](NC(=O)[C@H](Cc1ccc(O)cc1)NC(=O)CNC(=O)[C@H](C)NC(=O)[C@H](CCC(=O)O)NC(=O)[C@H](CCC(N)=O)NC(=O)[C@H](Cc1c[nH]c2ccccc12)NC(=O)[C@H](CCCNC(=N)N)NC(=O)[C@@H](C)N)C(=O)N[C@@H](Cc1ccccc1)C(=O)N[C@@H](CCC(=O)O)C(=O)N1CCC[C@H]1C(=O)N[C@@H](CCCNC(=N)N)C(=O)N[C@@H](CCCCN)C(=O)N[C@@H](CC(C)C)C(=O)N[C@H](C)C(=O)O [compound 243] (HELM PEPTIDE1{[dA].R.W.Q.E.A.G.Y.I.F.E.P.R.K.L.[dA]}$$$$V2.0)
  Free Fatty Acid Levels in 3T3-L1 Adipocytes Expressed as a Percent of Isoproterenol Control: Percent of Control Value: 82.3%

## H-RWQEMNYIFYPR-OH [compound 248]
  Free Fatty Acid Levels in 3T3-L1 Adipocytes Expressed as a Percent of Isoproterenol Control: Percent of Control Value: 50.4%

## CSCC[C@H](NC(=O)[C@H](CCC(=O)O)NC(=O)[C@H](CCC(N)=O)NC(=O)[C@H](Cc1c[nH]c2ccccc12)NC(=O)[C@H](CCCNC(=N)N)NC(=O)[C@@H](N)CCSC)C(=O)NCC(=O)N[C@@H](Cc1ccc(O)cc1)C(=O)N[C@H](C)C(=O)N[C@@H](Cc1ccccc1)C(=O)N[C@@H](Cc1ccc(O)cc1)C(=O)N1CCC[C@H]1C(=O)N[C@@H](CCCNC(=N)N)C(=O)N[C@@H](CCCCN)C(=O)N[C@@H](CC(C)C)C(=O)N[C@@H](CCCNC(=N)N)C(=O)O [compound 144] (HELM PEPTIDE1{M.R.W.Q.E.M.G.Y.[dA].F.Y.P.R.K.L.R}$$$$V2.0)
  Free Fatty Acid Levels in 3T3-L1 Adipocytes Expressed as a Percent of Isoproterenol Control: Percent of Control Value: 57.0%

## H-MRWQEMGYIFEPRKLR-OH [compound 177]
  Free Fatty Acid Levels in 3T3-L1 Adipocytes Expressed as a Percent of Isoproterenol Control: Percent of Control Value: 61.4%

## CC[C@H](C)[C@@H]1NC(=O)[C@H](Cc2ccc(O)cc2)NC(=O)CNC(=O)[C@H](CCSC)NC(=O)[C@H](CCC(=O)O)NC(=O)[C@@H](NC(=O)[C@H](Cc2c[nH]c3ccccc23)NC(=O)[C@H](CCCNC(=N)N)NC(=O)[C@H](CCSC)NC(C)=O)CCC(=O)NCCCC[C@@H](C(=O)N[C@@H](CCCNC(=N)N)C(=O)N[C@@H](CCCCN)C(=O)N[C@@H](CC(C)C)C(=O)N[C@@H](CCCNC(=N)N)C(N)=O)NC(=O)[C@H](Cc2ccc(O)cc2)NC(=O)[C@H](Cc2ccccc2)NC1=O [compound 228] (HELM PEPTIDE1{[ac].M.R.W.E.E.M.G.Y.I.F.Y.K.R.K.L.R.[am]}$PEPTIDE1,PEPTIDE1,5:R3-13:R3$$$V2.0)
  Free Fatty Acid Levels in 3T3-L1 Adipocytes Expressed as a Percent of Isoproterenol Control: Percent of Control Value: 69.9%

## H-MRWQEMGYIFYPRKLE-OH [compound 182]
  Free Fatty Acid Levels in 3T3-L1 Adipocytes Expressed as a Percent of Isoproterenol Control: Percent of Control Value: 36.6%

## CC[C@H](C)[C@H](NC(=O)[C@H](Cc1ccc(O)cc1)NC(=O)CNC(=O)[C@H](CCSC)NC(=O)[C@H](CCC(=O)O)NC(=O)[C@H](CCC(N)=O)NC(=O)[C@H](Cc1c[nH]c2ccccc12)NC(=O)C(C)(C)NC(=O)[C@H](CCSC)NC(C)=O)C(=O)N[C@@H](Cc1ccccc1)C(=O)N[C@@H](Cc1ccc(O)cc1)C(=O)N1CCC[C@H]1C(=O)N[C@@H](CCCNC(=N)N)C(=O)N[C@@H](CCCCN)C(=O)N[C@@H](CC(C)C)C(=O)N[C@@H](CCCNC(=N)N)C(=O)O [compound 120] (HELM PEPTIDE1{[ac].M.[Aib].W.Q.E.M.G.Y.I.F.Y.P.R.K.L.R}$$$$V2.0)
  Free Fatty Acid Levels in 3T3-L1 Adipocytes Expressed as a Percent of Isoproterenol Control: Percent of Control Value: 86.0%

## H-MRWQEMGYIFYERKLR-OH [compound 178]
  Free Fatty Acid Levels in 3T3-L1 Adipocytes Expressed as a Percent of Isoproterenol Control: Percent of Control Value: 67.6%

## Ac-MRWQEMGYIFEPRKLR-NH2 [compound 192]
  Free Fatty Acid Levels in 3T3-L1 Adipocytes Expressed as a Percent of Isoproterenol Control: Percent of Control Value: 66.8%

## H-ERWQEAGYIFYPR-OH [compound 235]
  Free Fatty Acid Levels in 3T3-L1 Adipocytes Expressed as a Percent of Isoproterenol Control: Percent of Control Value: 71.8%

## CC[C@H](C)[C@H](NC(=O)[C@H](Cc1ccc(O)cc1)NC(=O)CNC(=O)[C@H](C)NC(=O)[C@H](CCC(=O)O)NC(=O)[C@H](CCC(N)=O)NC(=O)[C@H](Cc1c[nH]c2ccccc12)NC(=O)[C@H](CCCNC(=N)N)NC(=O)[C@@H](N)CCC(=O)O)C(=O)N[C@@H](C)C(=O)N[C@@H](Cc1ccc(O)cc1)C(=O)N1CCC[C@H]1C(=O)N[C@@H](CCCNC(=N)N)C(=O)N[C@@H](CCCCN)C(=O)N[C@@H](CC(C)C)C(=O)N[C@H](C)C(=O)O [compound 240] (HELM PEPTIDE1{E.R.W.Q.E.A.G.Y.I.A.Y.P.R.K.L.[dA]}$$$$V2.0)
  Free Fatty Acid Levels in 3T3-L1 Adipocytes Expressed as a Percent of Isoproterenol Control: Percent of Control Value: 48.6%

## CC[C@H](C)[C@H](NC(=O)[C@H](Cc1ccc(O)cc1)NC(=O)CNC(=O)[C@H](CCC(=O)O)NC(=O)[C@H](CCC(=O)O)NC(=O)[C@H](CCC(N)=O)NC(=O)[C@H](Cc1c[nH]c2ccccc12)NC(=O)[C@H](CCCNC(=N)N)NC(=O)[C@@H](C)N)C(=O)N[C@@H](Cc1ccccc1)C(=O)N[C@@H](Cc1ccc(O)cc1)C(=O)N1CCC[C@H]1C(=O)N[C@@H](CCCNC(=N)N)C(=O)N[C@@H](CCCCN)C(=O)N[C@@H](CC(C)C)C(=O)N[C@H](C)C(=O)O [compound 231] (HELM PEPTIDE1{[dA].R.W.Q.E.E.G.Y.I.F.Y.P.R.K.L.[dA]}$$$$V2.0)
  Free Fatty Acid Levels in 3T3-L1 Adipocytes Expressed as a Percent of Isoproterenol Control: Percent of Control Value: 61.6%

## CC[C@H](C)[C@H](NC(=O)[C@H](Cc1ccc(O)cc1)NC(=O)[C@@H](C)NC(=O)[C@H](CCSC)NC(=O)[C@H](CCC(=O)O)NC(=O)[C@H](CCC(N)=O)NC(=O)[C@H](Cc1c[nH]c2ccccc12)NC(=O)[C@H](CCCNC(=N)N)NC(=O)[C@H](CCSC)NC(C)=O)C(=O)N[C@@H](Cc1ccccc1)C(=O)N[C@@H](Cc1ccc(O)cc1)C(=O)N1CCC[C@H]1C(=O)N[C@@H](CCCNC(=N)N)C(=O)N[C@@H](CCCCN)C(=O)N[C@@H](CC(C)C)C(=O)N[C@@H](CCCNC(=N)N)C(N)=O [compound 88] (HELM PEPTIDE1{[ac].M.R.W.Q.E.M.[dA].Y.I.F.Y.P.R.K.L.R.[am]}$$$$V2.0)
  Free Fatty Acid Levels in 3T3-L1 Adipocytes Expressed as a Percent of Isoproterenol Control: Percent of Control Value: 75.1%

## CC[C@H](C)[C@H](NC(=O)[C@H](Cc1ccc(O)cc1)NC(=O)CNC(=O)[C@H](CCC(=O)O)NC(=O)[C@H](CCC(=O)O)NC(=O)[C@H](CCC(N)=O)NC(=O)[C@H](Cc1c[nH]c2ccccc12)NC(=O)[C@H](CCCNC(=N)N)NC(=O)[C@@H](C)N)C(=O)N[C@@H](Cc1ccccc1)C(=O)N[C@@H](Cc1ccc(O)cc1)C(=O)N1CCC[C@H]1C(=O)N[C@@H](CCCNC(=N)N)C(=O)O [compound 232] (HELM PEPTIDE1{[dA].R.W.Q.E.E.G.Y.I.F.Y.P.R}$$$$V2.0)
  Free Fatty Acid Levels in 3T3-L1 Adipocytes Expressed as a Percent of Isoproterenol Control: Percent of Control Value: 46.5%

## CC[C@H](C)[C@H](NC(=O)[C@H](Cc1ccc(O)cc1)NC(=O)CNC(=O)[C@H](CCSC)NC(=O)[C@H](CCC(=O)O)NC(=O)[C@H](CCC(N)=O)NC(=O)[C@H](Cc1c[nH]c2ccccc12)NC(=O)[C@H](CCCNC(=N)N)NC(=O)[C@@H](N)CCSC)C(=O)N[C@@H](Cc1ccccc1)C(=O)N[C@@H](Cc1ccc(O)cc1)C(=O)N1CCC[C@H]1C(=O)N[C@@H](CCCNC(=N)N)C(=O)N[C@@H](CCCCN)C(=O)NC(CC)(CC)C(=O)N[C@@H](CCCNC(=N)N)C(N)=O [compound 200] (HELM PEPTIDE1{M.R.W.Q.E.M.G.Y.I.F.Y.P.R.K.[CCC(CC)(N[*:1])C(=O)[*:2]].R.[am]}$$$$V2.0)
  Free Fatty Acid Levels in 3T3-L1 Adipocytes Expressed as a Percent of Isoproterenol Control: Percent of Control Value: 80.2%
